Measured values as given in BindingDB's records for doi:10.1007/bf00165806 (UniversitÄT Heidelberg, 1987).

Legend:
Adenosine receptor A2a = Adenosine receptor A2a (Homo sapiens, UniProt P29274)
Adenosine receptor A1 = target: T1, Adenosine receptor A1 (Bos taurus, UniProt P28190)
T1 sequence (P28190 whole entry): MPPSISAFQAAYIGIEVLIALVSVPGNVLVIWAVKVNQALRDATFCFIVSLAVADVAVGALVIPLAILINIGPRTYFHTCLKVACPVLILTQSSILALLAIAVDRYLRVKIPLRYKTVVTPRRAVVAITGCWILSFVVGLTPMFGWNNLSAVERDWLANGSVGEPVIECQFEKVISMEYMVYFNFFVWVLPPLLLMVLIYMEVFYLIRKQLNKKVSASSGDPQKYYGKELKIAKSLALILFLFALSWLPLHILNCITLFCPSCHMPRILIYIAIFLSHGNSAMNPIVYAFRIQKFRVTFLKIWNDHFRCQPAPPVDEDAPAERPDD

Adenosine receptor A2a, sequence (P29274 whole entry): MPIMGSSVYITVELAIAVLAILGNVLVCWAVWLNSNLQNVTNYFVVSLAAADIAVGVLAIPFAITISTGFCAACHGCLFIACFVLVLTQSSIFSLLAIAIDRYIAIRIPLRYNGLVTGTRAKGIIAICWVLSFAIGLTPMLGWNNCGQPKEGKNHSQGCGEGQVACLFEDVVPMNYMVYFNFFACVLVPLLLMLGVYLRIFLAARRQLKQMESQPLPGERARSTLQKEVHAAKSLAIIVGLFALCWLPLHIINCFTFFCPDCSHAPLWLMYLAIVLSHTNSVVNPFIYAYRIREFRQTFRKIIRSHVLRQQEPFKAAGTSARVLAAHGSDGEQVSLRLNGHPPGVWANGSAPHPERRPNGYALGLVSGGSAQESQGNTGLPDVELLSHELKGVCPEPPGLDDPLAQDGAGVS

Structure (SMILES)	Ki (Adenosine receptor A2a) [nM]	Ki (Adenosine receptor A1) [nM]
CCn1c(=O)c2[nH]c(-c3ccccc3)nc2n(CC)c1=O [1,3-Diethyl-8-phenyl-3,7-dihydro-purine-2,6-dione]	210	–
CCCn1c(=O)c2[nH]c(C3CCCC3)nc2n(CCC)c1=O [DPCPX]	–	0.07
CCCn1c(=O)c2[nH]c(-c3ccc(OCC(=O)NCCN)cc3)nc2n(CCC)c1=O [N-(2-Amino-ethyl)-2-[4-(2,6-dioxo-1,3-dipropyl-2,3,6,9-tetrahydro-1H-purin-8-yl)-phenoxy]-acetamide]	–	0.08
